{"source": "patent US12582721B2", "about": "“Molybdenum-based feed supplement for bees” (UNIVERSITE DE VERSAILLES—SAINT-QUENTIN-EN-YVELINES, priority 2020, dated 2026)", "key": {"[1]": {"system": "families of European domestic bees", "assay": "1st test in hives: morpho-productive characters", "type": "in vivo, Apis mellifera carpatica", "details": "for Power of the bee family / Prolificity of the queen / Quantity of honey at the first harvest / Quantity of honey at the first harvest, change versus batch I: overall dose 2 mg per colony; for Power of the bee family / Prolificity of the queen / Quantity of honey at the first harvest: spring feeding, 10 hives; for Quantity of honey at the first harvest, change versus batch I: value in brackets; for Effects on the prolificity of the queen and the amount of honey collected compared to PPh4-Mo2O4-EDTA: 1st test, 2 mg per colony", "procedure": "Biological field tests were performed on families of European domestic bees of the species Apis mellifera […] experimental apiary located in the […] forestry district (Republic of Moldova). Feeding with the complex of the invention took place in spring. The biological tests were monitored up to the month of September. To administer the compounds to the bees, a very small amount of bioactive substance was added to two types of sugary feeding products for bees: candy in the form of a paste (70% sucrose, 30% honey) or syrup (50% sucrose, 50% water). The bees were fed by adding the candy/syrup to the feeder located in the inner upper part of the hive. The volume of syrup was adjusted based on the number of bee frames at the initial time, more precisely 200 g of candy per frame and 100 mL of syrup per frame, that is 2 kg of candy and 1 L of syrup per hive of 10 frames. For the first feeding step, candy in the form of a paste was only given once. […] From the start of the test to the end (after the second harvest), all the bees were monitored for several key morpho-producing parameters that reflect the development level of the colony and the vital aspects of the bees. The parameters studied are: the prolificity of the queen (fertility), the power of the colonies, the production of honey and the production of wax. These parameters were monitored in line with the zootechnical standards concerning the assessment of bee families, breeding and certification of beekeeping parental material approved by government decision No. 306 dated Apr. 28, 2011 of the Republic of Moldova. The production of honey (in kg) was determined for each family of bees by adding the amount of honey produced (honey from supers), extracted during the harvest season, to the amount of honey built up in the honeycomb (brood chamber) and left as food for the bees for the winter period (brood honey). The amount of honey produced will be determined for each family, for each extraction, by weighing the frames/honeycomb before and after extraction (with an accuracy of 0.1 kg), the weight difference being the quantity of honey produced that was extracted. The amount of honey left in the honeycomb to feed the bees was determined at the autumn visit (September), by weighing the honey frames and deducting (from their total weight) the total weight of the standard honeycomb frames; for […] type frames (435×300 mm)-0.6 kg, for Langstroth frames (435×230 mm)-0.5 kg. The power of the bee colony represents the number of bees present in the honeycomb at the time of the assessment. The assessment is performed three times per year: at the spring visit (March-April), at the end of spring (20-31 May) and at the visit in autumn (September). After these three assessments, the average power of the bee family is determined. The amount of bees (kg) is determined by multiplying the number of intervals between the frames, uniformly occupied by the bees, by the coefficient 0.25 for the standard […] frame (435×300 mm) and by 0.2 for the standard Langstroth frame (435×230 mm). The prolificity of the queen (eggs/24 hours) is determined during the visit at the end of the spring (20-31 May) by dividing the number of cells with the brood by 12 (duration of development of the brood, days), the number of eggs laid in 24 hours. The number of cells in the honeycomb is determined using the Netz frame by measuring the number of squares (5×5 cm) occupied by the brood, which is multiplied by 100, to give the total number of cells with the brood covered. The molecules tested, their concentration in solution and their annual overall doses are listed below: • 1. […] The concentration of the complex in the syrup: 1.5×10^-7 mol/L. Overall and annual product dose: 2 mg of complex per colony • 2. […] The concentration of the complex in syrup: 3.0×10^-7 mol/L. Overall and annual product dose: 2 mg of complex per colony • 3. […] Overall and annual product dose: 2 mg of complex per colony • 4. […]"}, "[2]": {"system": "HeLa, BxPC-3 and MDCK cells", "details": "BxPc-3 and HeLa", "source_text": "For cell culture, human cervical epithelial cells of the HeLa line, human epithelial pancreatic adenocarcinoma cells of the BxPC-3 line and healthy Madin-Darby canine kidney epithelial cells of the MDCK line were used in this study. The Resazurin cell proliferation test was applied according to the literature (S. Anoopkumar-Dukie, J. B. Carey, T. Conere, E. O'Sullivan, F. N. van Pelt, A. Allshire, Br J Radiol 2005, 78, 945, DOI: 10.1259/bjr/54004230). As an indicator of the effectiveness of the experimental compounds on cell proliferation, the median inhibitory concentration (IC50) was used. The lower the IC50 value, the higher the activity (in this case, the cytotoxicity)."}, "[3]": {"system": "bee colonies", "assay": "4th test in the hives: winter mortality of colonies, California 2020", "type": "in vivo, bees", "details": "counted Dec. 31, 2020, 55 hives, Batch 1 27.3%", "procedure": "A second treatment campaign was carried out in the autumn-winter 2020 in apiaries located in California, near San Francisco. This region is particularly vulnerable to winter mortality of bee colonies which can reach as high as 80% in some years.\n220 hives distributed over 13 different apiaries in California to the south of San Francisco were selected. Each apiary comprised between 8 and 24 hives. The bees were of different types: 165 hives of Wildflower bees (VSH-Italian) and 55 hives of Beeweaver bees (VSH-Carniolan).\nThe hives were Langstroth 2 body type hives (15 frames compared to 10 for Dadant hives in Europe). […] 20, 2020 and Oct. 12, 2020.\n1 apiary only contained Wildflower type bees. 2 apiaries only contained Beeweaver type bees. The other 10 apiaries comprised Wildflower and Beeweaver bees that were evenly distributed between the 4 batches.\nThe product Li—Mo2O4-EDTA was introduced on Sep. 20, 2020, and/or on Oct. 12, 2020 by syringe in the form of a concentrated aqueous solution (0.8 g/L) in a sugar syrup into the frame feeder. 10 mL of this solution were introduced and dispersed in 3.5 liters of sugar syrup at 65% sugar and introduced into the hive. […] The control hives only received sugar syrup.\nThe dead colonies were counted on Dec. 31, 2020. A total of 28 colonies were dead on 31 Dec. 2020, that is 12.73% of the total. The mortality rate is identical for Wildflower bees (21/165) and Beeweaver bees (7/55). The mortality per batch is distributed as follows: • Batch 1: 15 hives/55 hives, that is 27.3% losses • Batch 2: 0 hive/55 hives, that is 0% losses • Batch 3: 10 hives/55 hives, that is 18.2% losses • Batch 4: 3 hives/55 hives, that is 5.5% losses."}, "[4]": {"system": "bee families", "details": "feeding method of MD4438; cited from earlier work"}}}
{"smiles": "CC(=O)[O-].[Li+]", "note": "[Li—Ac, LiCH3COO·H2O, reference compound]", "values": [{"measurement": "Power of the bee family", "setting": "[1]", "result": "98.3 % relative to batch I"}, {"measurement": "Prolificity of the queen", "setting": "[1]", "result": "108.8 % relative to batch I"}, {"measurement": "Quantity of honey at the first harvest", "setting": "[1]", "result": "122.9 % relative to batch I"}, {"measurement": "Quantity of honey at the first harvest, change versus batch I", "setting": "[1]", "result": "+22.9%"}]}
{"smiles": "O.O.O.O.O.O.O=C([O-])CN(CCN(CC(=O)[O-])CC(=O)[O-])CC(=O)[O-].[Li+].[Li+].[O]=[Mo+]12[O][Mo+]1(=[O])[O]2", "note": "[Li—Mo2O4-EDTA, Li2[Mo2O4 (EDTA)]·6H2O]", "values": [{"measurement": "Cytotoxicity, conclusion from Table 1", "setting": "[2]", "result": "no cytotoxicity"}, {"measurement": "Effects on the prolificity of the queen and the amount of honey collected compared to PPh4-Mo2O4-EDTA", "setting": "[1]", "result": "higher effects"}, {"measurement": "Power of the bee family", "setting": "[1]", "result": "103.3 % relative to batch I"}, {"measurement": "Prolificity of the queen", "setting": "[1]", "result": "111.7 % relative to batch I"}, {"measurement": "Quantity of honey at the first harvest", "setting": "[1]", "result": "143.1 % relative to batch I"}, {"measurement": "Quantity of honey at the first harvest, change versus batch I", "setting": "[1]", "result": "+43.1%"}, {"measurement": "Mortality of colonies (losses)", "setting": "[3]; Batch 2: fed on Sep. 20, 2020, 8 mg", "result": 0, "unit": "%"}, {"measurement": "Mortality of colonies (losses)", "setting": "[3]; Batch 3: fed on Oct. 12, 2020, 8 mg", "result": 18.2, "unit": "%"}, {"measurement": "Mortality of colonies (losses)", "setting": "[3]; Batch 4: fed on Sep. 20, 2020 and Oct. 12, 2020", "result": 5.5, "unit": "%"}]}
{"smiles": "O.O.O.O.O.O=C([O-])CN(CCN(CC(=O)[O-])CC(=O)[O-])CC(=O)[O-].[Na+].[Na+].[O]=[Mo+]12[O][Mo+]1(=[O])[O]2", "note": "[Na—Mo2O4-EDTA, Na2[Mo2O4 (EDTA)]·5H2O]", "values": [{"measurement": "Cytotoxicity, conclusion from Table 1", "setting": "[2]", "result": "no cytotoxicity"}, {"measurement": "Effects on the prolificity of the queen and the amount of honey collected compared to PPh4-Mo2O4-EDTA", "setting": "[1]", "result": "higher effects"}, {"measurement": "Power of the bee family", "setting": "[1]", "result": "101.2 % relative to batch I"}, {"measurement": "Prolificity of the queen", "setting": "[1]", "result": "113.3 % relative to batch I"}, {"measurement": "Quantity of honey at the first harvest", "setting": "[1]", "result": "149.9 % relative to batch I"}, {"measurement": "Quantity of honey at the first harvest, change versus batch I", "setting": "[1]", "result": "+49.9%"}]}
{"smiles": "O=C([O-])CN(CCN(CC(=O)[O-])CC(=O)[O-])CC(=O)[O-].[O]=[Mo+]12[O][Mo+]1(=[O])[O]2.c1ccc([P+](c2ccccc2)(c2ccccc2)c2ccccc2)cc1.c1ccc([P+](c2ccccc2)(c2ccccc2)c2ccccc2)cc1", "note": "[PPh4—Mo2O4-EDTA, (PPh4)2[Mo2O4 (EDTA)]·2.5H2O]", "values": [{"measurement": "Power of the bee family", "setting": "[1]", "result": "102.1 % relative to batch I"}, {"measurement": "Prolificity of the queen", "setting": "[1]", "result": "107.1 % relative to batch I"}, {"measurement": "Quantity of honey at the first harvest", "setting": "[1]", "result": "113.3 % relative to batch I"}, {"measurement": "Quantity of honey at the first harvest, change versus batch I", "setting": "[1]", "result": "+13.3%"}, {"measurement": "Effect on queens and bee families", "setting": "[4]", "result": "stimulating the oogenesis functions of the queens, increasing the amount of larvae, improving the quantitative development of the bee families and increasing productivity thereof"}]}
